Literature values as cited in article PMC9851200, “Multiparameter phenotypic screening for endogenous TFEB and TFE3 translocation identifies novel chemical series modulating lysosome function” (Autophagy, 2022).

Tests used:
Design in all cases: method as in original PKIS2 published data
[1] = target: kinases (KINOMEscan panel) (Homo sapiens, UniProt P53667); settings: kinase LIMK1; Published KINOMEscan; ref original PKIS2 published data; cited from earlier work
[2] = target: T1, kinases (KINOMEscan panel) (Homo sapiens, UniProt P35626); settings: GRK3; Published KINOMEscan; ref original PKIS2 published data; cited from earlier work
T1 sequence (P35626 1-688): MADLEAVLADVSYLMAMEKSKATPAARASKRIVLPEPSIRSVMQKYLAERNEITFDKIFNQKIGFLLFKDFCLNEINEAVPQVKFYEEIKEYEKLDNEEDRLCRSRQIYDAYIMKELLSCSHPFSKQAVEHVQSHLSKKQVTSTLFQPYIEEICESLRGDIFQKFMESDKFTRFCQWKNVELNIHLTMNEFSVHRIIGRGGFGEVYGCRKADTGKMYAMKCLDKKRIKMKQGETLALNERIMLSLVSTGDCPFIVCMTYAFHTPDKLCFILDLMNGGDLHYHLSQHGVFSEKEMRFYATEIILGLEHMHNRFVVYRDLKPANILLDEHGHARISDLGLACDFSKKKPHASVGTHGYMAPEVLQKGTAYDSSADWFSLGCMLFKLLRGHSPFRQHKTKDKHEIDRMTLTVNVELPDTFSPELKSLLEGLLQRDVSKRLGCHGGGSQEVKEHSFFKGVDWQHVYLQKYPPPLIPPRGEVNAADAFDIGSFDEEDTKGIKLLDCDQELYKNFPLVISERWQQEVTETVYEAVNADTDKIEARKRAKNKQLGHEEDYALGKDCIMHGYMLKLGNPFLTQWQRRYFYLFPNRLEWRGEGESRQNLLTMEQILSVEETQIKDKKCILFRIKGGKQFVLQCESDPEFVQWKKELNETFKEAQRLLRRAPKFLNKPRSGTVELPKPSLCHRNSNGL

[3] = target: kinases (KINOMEscan panel) (Homo sapiens, UniProt P07332); settings: kinase FES; Published KINOMEscan; ref original PKIS2 published data; cited from earlier work
[4] = target: kinases (KINOMEscan panel) (Homo sapiens, UniProt P07948); settings: Published KINOMEscan; ref original PKIS2 published data; cited from earlier work
[5] = target: T2, kinases (KINOMEscan panel) (Homo sapiens, UniProt Q9UBE8); settings: NLK; Published KINOMEscan; ref original PKIS2 published data; cited from earlier work
T2 sequence (Q9UBE8 1-527): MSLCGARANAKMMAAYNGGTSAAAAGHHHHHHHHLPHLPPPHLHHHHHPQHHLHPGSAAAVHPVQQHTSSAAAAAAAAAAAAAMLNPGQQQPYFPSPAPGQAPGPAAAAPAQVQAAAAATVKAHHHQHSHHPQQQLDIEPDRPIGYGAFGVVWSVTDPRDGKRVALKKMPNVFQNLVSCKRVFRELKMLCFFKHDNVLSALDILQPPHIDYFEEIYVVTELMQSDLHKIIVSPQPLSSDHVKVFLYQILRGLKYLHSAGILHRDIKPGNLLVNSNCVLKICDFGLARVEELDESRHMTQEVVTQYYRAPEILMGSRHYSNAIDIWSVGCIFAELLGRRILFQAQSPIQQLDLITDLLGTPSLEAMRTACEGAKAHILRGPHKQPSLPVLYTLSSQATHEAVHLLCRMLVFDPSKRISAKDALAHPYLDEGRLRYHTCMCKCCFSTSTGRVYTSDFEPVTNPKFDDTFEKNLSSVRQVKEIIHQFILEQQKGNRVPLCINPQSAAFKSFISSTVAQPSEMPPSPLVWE

[6] = target: kinases (KINOMEscan panel) (Homo sapiens, UniProt P16591); settings: FER; Published KINOMEscan; ref original PKIS2 published data; cited from earlier work
[7] = target: T3, kinases (KINOMEscan panel) (Homo sapiens, UniProt O14936); settings: kinase CASK; Published KINOMEscan; ref original PKIS2 published data; cited from earlier work
T3 sequence (O14936 1-926): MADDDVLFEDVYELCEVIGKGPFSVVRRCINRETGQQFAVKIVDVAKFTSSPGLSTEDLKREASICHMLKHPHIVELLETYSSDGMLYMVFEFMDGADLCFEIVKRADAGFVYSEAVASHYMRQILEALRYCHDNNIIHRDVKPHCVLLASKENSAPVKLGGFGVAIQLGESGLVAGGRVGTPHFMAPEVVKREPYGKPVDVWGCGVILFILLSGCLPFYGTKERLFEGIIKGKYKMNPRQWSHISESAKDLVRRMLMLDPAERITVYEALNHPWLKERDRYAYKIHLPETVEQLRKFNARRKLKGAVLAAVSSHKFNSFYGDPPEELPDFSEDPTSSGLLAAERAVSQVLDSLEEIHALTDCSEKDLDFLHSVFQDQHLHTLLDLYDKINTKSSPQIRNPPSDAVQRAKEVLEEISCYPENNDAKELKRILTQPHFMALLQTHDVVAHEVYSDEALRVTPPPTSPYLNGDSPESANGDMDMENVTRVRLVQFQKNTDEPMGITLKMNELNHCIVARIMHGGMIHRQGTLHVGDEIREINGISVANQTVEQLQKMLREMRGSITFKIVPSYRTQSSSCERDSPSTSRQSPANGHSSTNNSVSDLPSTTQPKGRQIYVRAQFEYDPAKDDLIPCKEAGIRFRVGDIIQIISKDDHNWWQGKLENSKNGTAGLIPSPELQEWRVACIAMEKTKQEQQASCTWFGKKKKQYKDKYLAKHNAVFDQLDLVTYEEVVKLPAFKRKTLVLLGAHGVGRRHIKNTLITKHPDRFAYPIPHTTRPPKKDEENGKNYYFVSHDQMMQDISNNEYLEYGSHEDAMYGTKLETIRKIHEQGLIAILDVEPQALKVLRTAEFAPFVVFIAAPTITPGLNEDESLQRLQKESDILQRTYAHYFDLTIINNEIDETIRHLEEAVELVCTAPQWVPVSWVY

kinases (KINOMEscan panel) (Homo sapiens, UniProt P16591), sequence (P16591 whole entry): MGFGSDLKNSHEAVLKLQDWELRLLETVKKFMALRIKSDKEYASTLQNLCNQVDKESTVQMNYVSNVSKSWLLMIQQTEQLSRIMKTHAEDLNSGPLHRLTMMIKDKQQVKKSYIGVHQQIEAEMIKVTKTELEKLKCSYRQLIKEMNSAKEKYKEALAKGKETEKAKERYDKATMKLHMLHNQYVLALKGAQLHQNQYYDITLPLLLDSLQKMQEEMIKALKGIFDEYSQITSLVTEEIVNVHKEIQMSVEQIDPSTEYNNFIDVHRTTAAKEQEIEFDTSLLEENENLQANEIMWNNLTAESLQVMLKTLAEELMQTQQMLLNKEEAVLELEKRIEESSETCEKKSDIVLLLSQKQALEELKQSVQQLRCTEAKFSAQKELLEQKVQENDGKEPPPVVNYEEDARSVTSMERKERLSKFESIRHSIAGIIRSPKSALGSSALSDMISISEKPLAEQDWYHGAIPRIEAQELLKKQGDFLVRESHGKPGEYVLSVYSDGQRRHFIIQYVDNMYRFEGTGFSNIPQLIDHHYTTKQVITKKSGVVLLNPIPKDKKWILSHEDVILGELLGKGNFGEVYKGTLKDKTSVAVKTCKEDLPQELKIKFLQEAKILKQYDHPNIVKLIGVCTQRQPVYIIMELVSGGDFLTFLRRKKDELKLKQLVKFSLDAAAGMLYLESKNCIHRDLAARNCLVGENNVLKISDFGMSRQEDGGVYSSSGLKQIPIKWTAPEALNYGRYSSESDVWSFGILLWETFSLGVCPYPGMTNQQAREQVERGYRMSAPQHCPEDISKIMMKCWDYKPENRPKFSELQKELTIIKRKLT
kinases (KINOMEscan panel) (Homo sapiens, UniProt P07332), sequence (P07332 whole entry): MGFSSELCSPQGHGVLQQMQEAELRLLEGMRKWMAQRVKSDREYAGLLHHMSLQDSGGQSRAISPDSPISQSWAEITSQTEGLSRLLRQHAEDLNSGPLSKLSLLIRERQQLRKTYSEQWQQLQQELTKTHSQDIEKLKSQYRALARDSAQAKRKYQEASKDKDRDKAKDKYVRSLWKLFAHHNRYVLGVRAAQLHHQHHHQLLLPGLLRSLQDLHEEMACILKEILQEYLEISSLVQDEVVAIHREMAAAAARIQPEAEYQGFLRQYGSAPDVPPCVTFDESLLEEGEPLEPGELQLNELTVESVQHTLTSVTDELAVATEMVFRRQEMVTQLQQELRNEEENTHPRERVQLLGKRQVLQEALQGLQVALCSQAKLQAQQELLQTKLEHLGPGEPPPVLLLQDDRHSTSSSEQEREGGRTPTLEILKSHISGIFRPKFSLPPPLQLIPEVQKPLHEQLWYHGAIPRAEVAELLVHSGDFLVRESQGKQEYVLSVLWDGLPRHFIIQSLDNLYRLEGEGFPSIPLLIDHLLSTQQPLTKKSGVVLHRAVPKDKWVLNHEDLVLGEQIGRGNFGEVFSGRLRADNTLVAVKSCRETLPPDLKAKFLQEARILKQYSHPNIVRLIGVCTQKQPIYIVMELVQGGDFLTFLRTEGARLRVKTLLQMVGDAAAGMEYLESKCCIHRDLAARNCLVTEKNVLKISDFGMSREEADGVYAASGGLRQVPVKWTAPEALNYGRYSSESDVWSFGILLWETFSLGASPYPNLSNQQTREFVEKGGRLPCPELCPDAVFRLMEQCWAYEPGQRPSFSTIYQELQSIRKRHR
kinases (KINOMEscan panel) (Homo sapiens, UniProt P07948), sequence (P07948 whole entry): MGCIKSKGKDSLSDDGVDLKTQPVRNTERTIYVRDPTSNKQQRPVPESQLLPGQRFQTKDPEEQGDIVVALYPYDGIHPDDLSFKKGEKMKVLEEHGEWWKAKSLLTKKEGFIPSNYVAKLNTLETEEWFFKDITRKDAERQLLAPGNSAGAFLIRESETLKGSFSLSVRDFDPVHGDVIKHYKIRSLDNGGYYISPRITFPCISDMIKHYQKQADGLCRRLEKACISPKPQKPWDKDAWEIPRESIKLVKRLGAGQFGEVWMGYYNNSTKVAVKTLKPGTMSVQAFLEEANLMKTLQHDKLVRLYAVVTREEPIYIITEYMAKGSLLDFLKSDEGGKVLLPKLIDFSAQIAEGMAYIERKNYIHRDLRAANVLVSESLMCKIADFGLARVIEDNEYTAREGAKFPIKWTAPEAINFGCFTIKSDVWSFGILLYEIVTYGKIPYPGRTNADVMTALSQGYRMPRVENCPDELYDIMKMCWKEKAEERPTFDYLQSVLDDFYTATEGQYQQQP
kinases (KINOMEscan panel) (Homo sapiens, UniProt P53667), sequence (P53667 whole entry): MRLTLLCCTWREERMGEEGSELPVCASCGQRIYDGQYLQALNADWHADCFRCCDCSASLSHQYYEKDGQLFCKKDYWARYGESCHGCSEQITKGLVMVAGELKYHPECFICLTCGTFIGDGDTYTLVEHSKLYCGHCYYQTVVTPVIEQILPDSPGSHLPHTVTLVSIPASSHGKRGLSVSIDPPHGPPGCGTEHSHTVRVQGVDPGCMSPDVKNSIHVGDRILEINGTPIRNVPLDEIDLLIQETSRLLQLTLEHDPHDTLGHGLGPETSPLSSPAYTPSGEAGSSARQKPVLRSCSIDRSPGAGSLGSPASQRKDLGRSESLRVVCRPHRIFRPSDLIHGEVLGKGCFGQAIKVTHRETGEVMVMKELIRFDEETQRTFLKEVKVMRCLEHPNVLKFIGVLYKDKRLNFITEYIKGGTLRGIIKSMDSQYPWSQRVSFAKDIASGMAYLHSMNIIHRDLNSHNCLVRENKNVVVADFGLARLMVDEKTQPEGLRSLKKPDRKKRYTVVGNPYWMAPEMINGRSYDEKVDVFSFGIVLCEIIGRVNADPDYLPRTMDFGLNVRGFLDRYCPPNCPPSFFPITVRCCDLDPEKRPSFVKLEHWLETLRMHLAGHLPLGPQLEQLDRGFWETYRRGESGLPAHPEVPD

SMILES: Cc1cccc(-c2nc(Nc3ccncc3)c3ccccc3n2)n1 [NK215]
- KINOMEscan LIMK1 [1]: 12
- KINOMEscan GRK3 [2]: 0
- KINOMEscan FES [3]: 13
- KINOMEscan LYN [4]: 0
- KINOMEscan NLK [5]: 47
- KINOMEscan FER [6]: 0
- KINOMEscan CASK [7]: 0
